Common to all, as to experiment: growth of human tumour cells (NCI), 48 h
Test [1] has as its system MDA-MB-435.
The test system of test [2] is MCF7.
Test [3] relates to SF-539.
The test system of test [4] is SR.
Test [5] deals with 786-0.
For test [6], the system named is DU-145.
The test system of test [7] is A498.
Test [8] relates to OVCAR-8.
The test system of test [9] is SN12C.
Test [10] concerns SK-OV-3.
Test [11] has as its system LOX IMVI.
Test [12] has as its system NCI-H460.
The test system of test [13] is A549.
In test [14] the test system is K562.
For test [15], the system named is Hs-578T.
Test [16] concerns PC-3.
Test [17] relates to NCI-H226.
The subject of test [18] is EKVX.
In test [19] the test system is ACHN.
Test [20] deals with T47D.

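Cultured in 96-well plates, cells were exposed to test compound for 48 hours across five concentrations. GI50 = concentration required for 50% inhibition of growth.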 Active and inactive are the calls of the source. Cut-off read from the data, not from the text of the source: active = GI50 up to about 1.1 µM and inactive = higher. Square brackets hold non-standard residues; d marks the D form. Peptide text beside a SMILES is read from it. * marks the point of attachment. ξ: configuration not given here. Propanoyl(3-(4-MeO-Ph)) = COc1ccc(CCC(=O)*)cc1; Thr(3ξ) = CC(O)[C@H](N)C(=O)O; dNMeL = CN[C@H](CC(C)C)C(=O)O; ξLac = CC(O)C(=O)O

Take `CC(/C=C/C(=O)NO)=C\C(C)C(=O)c1ccc(N(C)C)cc1` (stereo not given): the GI50 in [1] is 0.0159 µM (active); in test [2] it was < 0.01 µM (active); in test [3] it was 0.0267 µM (active); in [4], < 0.0112 µM (active); in test [5], 0.0339 µM (active); in test [6], 0.0176 µM (active). For the same molecule, the GI50 is 0.0841 µM (active) in test [7]; < 0.01 µM (active) in test [8]; 0.0605 µM (active) in test [9]; 0.0498 µM (active) in test [10]; < 0.01 µM (active) in [11]; < 0.01 µM (active) in test [12]. Moreover, the GI50 is < 0.0122 µM (active) in test [13]; 0.0325 µM (active) in [14]; < 0.01 µM (active) in test [15]; 0.0156 µM (active) in test [16]; 0.188 µM (active) in test [17]; 0.261 µM (active) in test [18]. In addition, the figures for the GI50 in [19] and in [20] were 0.0231 µM (active) and < 0.01 µM (active), respectively.
Take `O=C(NC(=O)c1ccccc1[N+](=O)[O-])Nc1ccc(Oc2ncc(Cl)cn2)c([N+](=O)[O-])c1`: the GI50 in [1] is 0.0214 µM (active); in test [2], 0.12 µM (active); in test [3], 0.233 µM (active); in test [4], 0.0638 µM (active); in test [5] it was 0.225 µM (active); in [6] it was 0.291 µM (active). Also, the GI50 in test [7] was 0.301 µM (active); in test [8], 1.78 µM (inactive); in test [9], 0.7 µM (active); in test [10], 0.146 µM (active); in test [11] it was 0.895 µM (active); in test [12] it was 0.198 µM (active). Moreover, the GI50 in [13] is 0.385 µM (active); in test [14] it was 0.0339 µM (active); in test [15], 0.202 µM (active); in test [16], 0.196 µM (active); in [17], 0.263 µM (active); in [18], 2.93 µM (inactive). The GI50 is 0.641 µM (active) in [19] and 0.414 µM (active) in test [20].
As for `Nc1nc(Cl)cc(NCC2(O)CCC2)n1`, the GI50 in [1], in test [2], in test [3], in test [4], in [5] and in test [6] was > 100 µM (inactive) throughout. Moreover, the GI50 in [7], in [8], in test [9], in test [10], in test [11] and in test [12] was > 100 µM (inactive) each time. Further, the GI50 in [13], in test [14], in test [15], in test [16], in [17] and in test [18] was > 100 µM (inactive) in each case. Further, the GI50 in test [19] and in [20] was > 100 µM (inactive) in each case.
Take `COc1ccc(\N=C/C=C/C(=C/COC(C)=O)OC(C)=O)cc1`: the GI50 in test [1] is 18.8 µM (inactive); in test [2] it was 21.7 µM (inactive); in [3] it was 35.9 µM (inactive); in test [4], 39.4 µM (inactive); in test [5], 23 µM (inactive); in test [6] it was 39.4 µM (inactive). Also, the GI50 was 32.3 µM (inactive) in [7]; 14.4 µM (inactive) in test [8]; 32.7 µM (inactive) in [9]; 91.2 µM (inactive) in test [10]; 25.6 µM (inactive) in test [11]; 34.5 µM (inactive) in test [12]. For the same molecule, the GI50 is 90.6 µM (inactive) in [13]; 4.89 µM (inactive) in [14]; 62.8 µM (inactive) in test [15]; 36.4 µM (inactive) in test [16]; > 100 µM (inactive) in test [17]; 51.8 µM (inactive) in [18]. Moreover, the GI50 in test [19] was 17.3 µM (inactive); in [20], 72.9 µM (inactive).
As for `N#Cc1c(-c2ccc(Cl)cc2)cc(-c2ccc(Nc3ccnc4cc(C(F)(F)F)ccc34)cc2)[nH]c1=O`, the GI50 in [1] was 3.33 µM (inactive); in [2] it was 4.79 µM (inactive); in test [3], 6.65 µM (inactive); in [4], 2.72 µM (inactive); in test [5] it was 12.4 µM (inactive); in test [6], 22.9 µM (inactive). Further, the GI50 in test [7] is > 51.8 µM (inactive); in test [8], 38.3 µM (inactive); in test [9], 59.2 µM (inactive); in test [10], 28.1 µM (inactive); in test [11], 2.94 µM (inactive); in test [12], > 100 µM (inactive). Also, the GI50 in test [13] was > 100 µM (inactive); in test [14] it was 3.52 µM (inactive); in [15] it was 20 µM (inactive); in test [16], 69.2 µM (inactive); in test [17] it was > 92.3 µM (inactive); in test [18], > 100 µM (inactive). For the same molecule, the GI50 in [19] is > 100 µM (inactive); in test [20], 4.79 µM (inactive).
As to `c1ccc(CSc2nc(N3CCCCC3)c3cn[nH]c3n2)cc1`, the GI50 in [1] was 22.4 µM (inactive); in [2], 26.9 µM (inactive); in [3], 18.4 µM (inactive); in test [4], 25.3 µM (inactive); in test [5], 25.2 µM (inactive); in test [6], 30.3 µM (inactive). The GI50 in test [7] is 15.6 µM (inactive); in test [8], 23.4 µM (inactive); in test [9] it was 19.7 µM (inactive); in test [10], 36.6 µM (inactive); in test [11], 21 µM (inactive); in test [12], 22.8 µM (inactive). Moreover, the GI50 is 27.4 µM (inactive) in [13]; 40.3 µM (inactive) in test [14]; 17.3 µM (inactive) in test [15]; 22.5 µM (inactive) in test [16]; 18.8 µM (inactive) in test [17]; 20.3 µM (inactive) in [18]. Besides, the GI50 in test [19] is 27.2 µM (inactive); in [20] it was 21.9 µM (inactive).
In the case of `CC(C)(CN)CN`, the GI50 in test [1], in test [2], in test [3], in test [4], in test [5] and in [6] was > 100 µM (inactive) in each case. Further, the GI50 in test [7], in test [8], in test [9], in test [10], in test [11] and in test [12] was > 100 µM (inactive) each time. For the same molecule, the GI50 in [13], in test [14], in [15], in test [16], in test [17] and in test [18] was > 100 µM (inactive) in each case. Also, the GI50 in [19] and in test [20] was > 100 µM (inactive) in each case.
Regarding `COC(=O)[C@@H](NC(=O)[C@@H](CC(C)C)N(C)C(=O)[C@@H]1CCCN1C(=O)C(C)O)C(C)OC(=O)CCc1ccc(OC)cc1` (stereo not given in full) (H-[ξLac]P[dNMeL][Thr(3ξ)](Propanoyl(3-(4-MeO-Ph)))-OMe), the GI50 in [1], in test [2], in test [3], in test [4], in [5] and in test [6] was > 100 µM (inactive) in each case. The GI50 in [7], in test [8], in [9], in test [10], in test [11] and in test [12] was > 100 µM (inactive) in each case. Moreover, the GI50 in test [13], in [14], in test [15], in [16], in test [17] and in test [18] was > 100 µM (inactive) in each case. Further, the GI50 in test [19] and in [20] was > 100 µM (inactive) each time.
Turning to `O=C(CNc1cccc([N+](=O)[O-])c1)Nn1c(-c2ccccc2)nc2ccccc2c1=O`, the GI50 was 2.02 µM (inactive) in [1]; 0.389 µM (active) in test [2]; 1.97 µM (inactive) in test [3]; 0.271 µM (active) in test [4]; 0.399 µM (active) in [5]; 2.38 µM (inactive) in test [6]. Moreover, the GI50 was 0.0112 µM (active) in [7]; 1.59 µM (inactive) in test [8]; 0.508 µM (active) in [9]; 0.573 µM (active) in [10]; 0.221 µM (active) in test [11]; 0.555 µM (active) in test [12]. In addition, the GI50 is 1.74 µM (inactive) in [13]; 0.528 µM (active) in test [14]; 0.581 µM (active) in test [15]; 0.543 µM (active) in test [16]; 0.2 µM (active) in test [17]; 2.41 µM (inactive) in test [18]. The GI50 in [19] was 1.4 µM (inactive); in test [20], 2.17 µM (inactive).
`CC(=O)Nc1nc(O)c2nc(C=O)cnc2n1`: the GI50 in test [1], in [2], in [3], in test [4], in test [5] and in test [6] was > 100 µM (inactive) in each case. The GI50 in [7], in test [8], in [9], in test [10], in test [11] and in [12] was > 100 µM (inactive) in each case. Moreover, the GI50 in test [13], in test [14], in test [15], in test [16], in [17] and in test [18] was > 100 µM (inactive) in each case. Also, the GI50 in test [19] and in test [20] was > 100 µM (inactive) in each case.

Source of the values: ChEMBL document CHEMBL1201862, “PubChem BioAssay data set” (2004).
